In the data set the target is HSD17B13. The note with it: ASO, HepaRG.

Values joined by “and” are separate entries in the source; they are usually repeats but may differ in a detail not shown here. Equal values may be shown once. After the bases stand the sugars from the 5' end (letter, count) and the backbone: PS all phosphorothioate, else s phosphorothioate and o phosphodiester by linkage. Methylation of C is not given here. e = 2'-O-(2-methoxyethyl) (MOE); k = constrained ethyl (cEt); d = 2'-deoxy (DNA); m = 2'-O-methyl

“CTTAAGATACCCAGGT (sugars kkdddddddddkekek, PS)” displayed a target mRNA inhibition (1 µM) of 34%.

With CTTAAGGATCATTGCA (sugars k3 d10 k3, PS), the target mRNA inhibition (1 µM) was determined as 29%.

CTTACCTTGTGCTTGG (sugars k3 d10 k3, PS) had a target mRNA inhibition (1 µM) of 34%.

CTTACGACAGGTCATC (sugars k3 d10 k3, PS) showed a target mRNA inhibition (1 µM) of 39%.

Turning to CTTAGGAAAGCTCATG (sugars k3 d10 k3, PS), the target mRNA inhibition (1 µM) was 0%.

For the setting “1 µM”, CTTAGTACCAAGACAC (sugars k3 d10 k3, PS) registered a target mRNA inhibition of 60%.

In the case of CTTATACTGAAGGCTG (sugars k3 d10 k3, PS), the target mRNA inhibition (1 µM) is 48%.

For “CTTATGTAATAGCCAG (sugars k2 d10 k3 e1, PS)”, the target mRNA inhibition (1 µM) was 70%.

On to “CTTATGTAATAGCCAG (sugars kkdddddddddkekek, PS)”, for which the target mRNA inhibition (1 µM) was determined as 61%.

Consider “CTTAUGTAATAGCCAG (sugars k3 d1 m1 d8 k3, PS)”, for which the target mRNA inhibition by setting is: (0.02 µM) 0%; (0.078 µM) 0%; (0.313 µM) 34%; (1 µM) 75%; (1.25 µM) 65%; (5 µM) 91%.

As for “CTTCATAGTGGACTTC (sugars kkdddddddddkekek, PS)”, the target mRNA inhibition (1 µM) is 45%.

In the case of CTTCTCTTGGGTCCAT (sugars k3 d10 k3, PS), where the note is “1 µM”, the target mRNA inhibition was found to be 51%.

For CTTCTTACGACTTCAT (sugars k3 d10 k3, PS), the target mRNA inhibition (1 µM) was found to be 45%.

In turn, “CTTGAACAGTCTTAAA (sugars k3 d9 k3 e1, PS)” showed a target mRNA inhibition (1 µM) of 43%.

In turn, CTTGAACAGTCTTAAA (sugars k3 d10 k3, PS) came in with a target mRNA inhibition (1 µM) of 39%.

For the sequence CTTGACAATGGTTGAT (sugars k3 d10 k3, PS), the target mRNA inhibition (1 µM) came out at 54%.

CTTGACTAAGGAGCTA (sugars k3 d10 k3, PS): the target mRNA inhibition (1 µM) came out at 24%.

For CTTGAGAGTGATTGCC (sugars k3 d10 k3, PS), where the note is “1 µM”, the target mRNA inhibition is 64%.

Consider “CTTGATGTAGTGGGAG (sugars k3 d9 k3 e1, PS)”, for which the target mRNA inhibition (1 µM) was 62%.

Sequence CTTTAGTCAACAGTAC (sugars k3 d10 k3, PS) had a target mRNA inhibition (1 µM) of 12%.

On to CTTTCTATCAACCTGC (sugars k3 d10 k3, PS), for which, for the setting “1 µM”, the target mRNA inhibition came to 68%.

Take “CTTTGAGACTCTTGTT (sugars k3 d9 k3 e1, PS)”: under “1 µM”, the target mRNA inhibition is 57%.

In turn, “CTTTGAGACTCTTGTT (sugars kkdddddddddkekek, PS)” showed a target mRNA inhibition (1 µM) of 42%.

In turn, CTTTTGTCCACCTTTA (sugars k3 d10 k3, PS) came in with a target mRNA inhibition (1 µM) of 76%.

Consider “CTTTTTATAGACTGGG (sugars kkdddddddddkekek, PS)”, for which the target mRNA inhibition (1 µM) stood at 37%.

In the case of GAAACTCACTTCCTAC (sugars k3 d10 k3, PS), for the setting “1 µM”, the target mRNA inhibition turned out to be 56%.

Sequence “GAAACTTGATCTCTTA (sugars k3 d1 m1 d8 k3, PS)” had a target mRNA inhibition (1 µM) of 59%.

For “GAAACTTGATCTCTTA (sugars k3 d9 k3 e1, PS)”, the target mRNA inhibition runs as follows: (0.02 µM) 0%; (0.078 µM) 11%; (0.313 µM) 60%; (1 µM) 79%; (1.25 µM) 82%; (5 µM) 90%.

Under “1 µM”, GAAAGATGGAATGAGC (sugars k3 d10 k3, PS) displayed a target mRNA inhibition of 54%.

In turn, GAAATTGATACACCAA (sugars k3 d10 k3, PS) yielded a target mRNA inhibition (1 µM) of 67%.

For GAAATTTGTGAACCTG (sugars k3 d10 k3, PS), for the setting “1 µM”, the target mRNA inhibition was 32%.

GAACAATCTCCCCAGC (sugars k3 d10 k3, PS) displayed a target mRNA inhibition (1 µM) of 63%.

Sequence “GAACAGTCTTAAACCT (sugars k3 d1 m1 d8 k3, PS)” came in with a target mRNA inhibition (0.02 µM) of 0%; a target mRNA inhibition (0.078 µM) of 24%; a target mRNA inhibition (0.313 µM) of 53%; a target mRNA inhibition (1 µM) of 75%; a target mRNA inhibition (1.25 µM) of 66%; a target mRNA inhibition (5 µM) of 69%.

Sequence “GAACAGTCTTAAACCT (sugars kkdddddddddkekek, PS)” yielded a target mRNA inhibition (1 µM) of 63%.

For GAACCCAGTATTCACA (sugars k3 d10 k3, PS), the target mRNA inhibition (1 µM) stood at 0%.

With GAAGAAGTGCTTTTGT (sugars k3 d10 k3, PS), the target mRNA inhibition (1 µM) was found to be 50%.

Consider GAAGATTAGTTAACCT (sugars k3 d10 k3, PS), for which the target mRNA inhibition (1 µM) amounted to 13%.

The sequence GAAGTATGTGAACTCC (sugars k3 d10 k3, PS) displayed a target mRNA inhibition (1 µM) of 56%.

Take GAAGTGATCCATATTC (sugars k3 d10 k3, PS): the target mRNA inhibition (1 µM) was 44%.

In turn, “GAAGTTAGTATAGTTA (sugars kkdddddddddkekek, PS)” gave a target mRNA inhibition (1 µM) of 56%.

Consider “GAAGUTAGTATAGTTA (sugars k3 d1 m1 d8 k3, PS)”, for which the target mRNA inhibition (1 µM) was 43%.

On to GAATACGCTGAGAGTT (sugars k3 d10 k3, PS), for which, for the setting “1 µM”, the target mRNA inhibition was 11%.

With GAATAGAGTTGCACCG (sugars k3 d10 k3, PS), for the setting “1 µM”, the target mRNA inhibition amounted to 55%.

Sequence “GAATAGCAAGCCAACA (sugars k3 d9 k3 e1, PS)” displayed a target mRNA inhibition (1 µM) of 30%.

As for GAATAGCAAGCCAACA (sugars k3 d10 k3, PS), the target mRNA inhibition was 0% (0.02 µM); 4% (0.078 µM); 12% (0.313 µM); 64% (1 µM); 20% (1.25 µM); 40% and 50% (5 µM).

In turn, “GAATAGCAAGCCAACA (sugars kkdddddddddkekek, PS)” registered a target mRNA inhibition (1 µM) of 27%.

GAATAGTCTTCAGCAA (sugars k3 d10 k3, PS) came in with a target mRNA inhibition (1 µM) of 51%.

In turn, “GAATGCTACTTGAACA (sugars k3 d9 k3 e1, PS)” showed a target mRNA inhibition (1 µM) of 56%.

For the setting “1 µM”, GAATTGCTCACCCTTT (sugars k3 d10 k3, PS) came in with a target mRNA inhibition of 24%.

For GACAACAAACAATGGG (sugars k3 d10 k3, PS), the target mRNA inhibition (1 µM) turned out to be 39%.

GACAATTAACATTCGG (sugars k3 d10 k3, PS) gave a target mRNA inhibition (1 µM) of 69%.

For the sequence GACAGACCAAGTAGCT (sugars k3 d10 k3, PS), the target mRNA inhibition (1 µM) was determined as 39%.

GACAGTAGATTTGGTA (sugars k3 d10 k3, PS) registered a target mRNA inhibition (1 µM) of 34%.

GACAGTTGAGTAGTGT (sugars k3 d10 k3, PS) yielded a target mRNA inhibition (1 µM) of 46%.

Where the note is “1 µM”, GACATGAGGTTTTGAT (sugars k3 d10 k3, PS) came in with a target mRNA inhibition of 52%.

Sequence “GACATGAGGTTTTGAT (sugars kkdddddddddkekek, PS)” registered a target mRNA inhibition (1 µM) of 55%.

Turning to GACCTCAAATGTCTTG (sugars k3 d10 k3, PS), the target mRNA inhibition (1 µM) worked out at 12%.

In turn, GACGATGTGGCCATGA (sugars k3 d10 k3, PS) displayed a target mRNA inhibition (1 µM) of 42%.

As to GACTAAGGAGCTAGAT (sugars k3 d10 k3, PS), the target mRNA inhibition (1 µM) worked out at 25%.

GACTACATTAACACCA (sugars k3 d10 k3, PS) displayed a target mRNA inhibition (1 µM) of 58%.

Sequence GACTCCAAGTAGGAGT (sugars k3 d10 k3, PS) gave a target mRNA inhibition (1 µM) of 0%.

Values taken from the OligoGym collection.
